Assay results as given in patent US10383948B2, “Anti-cMet antibody drug conjugates and methods for their use” (AbbVie Inc., priority 2016, dated 2019).
pIC50: −log10 of the molar value.

Key:
[1] = tested on: A549; assay: Cytotoxicity assay (CellTiter-Glo, 6 days); type: cell-based, human; conditions: A549 lung cancer; relative to untreated control at ≤1 μg/mL in a six day proliferation
Description: (§1) Tumor cells were plated at 2000-5000 cells/well in 180 μL growth medium containing 10% FBS in 96-well plates, and cultured at 37° C. in a humidified incubator with 5% C02. The following day, titrations of antibodies or ADCs in 20 μL were added and cells were incubated for 6 days. Cell viability was determined using a CellTiter-Glo Luminescent Cell Viability Assay (Promega) according to the manufacturer's instructions. A non-binding, irrelevant negative control ADC conjugated to MMAE was also included in all assays to confirm that cell killing was antigen dependent.
as §1, with “of” for “of antibodies or”, “antigen-dependent.” for “antigen dependent.”

[2] = tested on: EBC-1; assay: Cytotoxicity assay (CellTiter-Glo, 6 days); type: cell-based, human; conditions: EBC-1 lung cancer; relative to untreated control at ≤1 μg/mL in a six day proliferation
Description: as §1
as §1, with “of” for “of antibodies or”, “antigen-dependent.” for “antigen dependent.”

[3] = tested on: Hs746T; assay: Cytotoxicity assay (CellTiter-Glo, 6 days); type: cell-based, human
Description: as §1
as §1, with “of” for “of antibodies or”, “antigen-dependent.” for “antigen dependent.”

[4] = tested on: KP4; assay: Cytotoxicity assay (CellTiter-Glo, 6 days); type: cell-based, human; conditions: KP4 pancreatic cancer; relative to untreated control at ≤1 μg/mL in a six day proliferation
Description: as §1
as §1, with “of” for “of antibodies or”, “antigen-dependent.” for “antigen dependent.”

[5] = tested on: NCI-H1573; assay: Cytotoxicity assay (CellTiter-Glo, 6 days); type: cell-based, human; conditions: NCI-H1573 lung cancer
Description: as §1
as §1, with “of” for “of antibodies or”, “antigen-dependent.” for “antigen dependent.”

[6] = tested on: NCI-H1650; assay: Cytotoxicity assay (CellTiter-Glo, 6 days); type: cell-based, human; conditions: NCI-H1650 lung cancer; relative to untreated control at ≤1 μg/mL in a six day proliferation
Description: as §1
as §1, with “of” for “of antibodies or”, “antigen-dependent.” for “antigen dependent.”

[7] = tested on: NCI-H441; assay: Cytotoxicity assay (CellTiter-Glo, 6 days); type: cell-based, human; conditions: NCI-H441 lung cancer; relative to untreated control at ≤1 μg/mL in a six day proliferation
Description: as §1
as §1, with “of” for “of antibodies or”, “antigen-dependent.” for “antigen dependent.”

[8] = tested on: SW48; assay: Cytotoxicity assay (CellTiter-Glo, 6 days); type: cell-based, human; conditions: SW48 colorectal cancer; relative to untreated control at ≤1 μg/mL in a six day proliferation
Description: as §1
as §1, with “of” for “of antibodies or”, “antigen-dependent.” for “antigen dependent.”

[9] = tested on: U87MG; assay: Cytotoxicity assay (CellTiter-Glo, 6 days); type: cell-based, human; conditions: U-87MG glioblastoma; relative to untreated control at ≤1 μg/mL in a six day proliferation
Description: as §1
as §1, with “of” for “of antibodies or”, “antigen-dependent.” for “antigen dependent.”

[10] = tested on: LG1049 patient-derived xenograft; assay: NSCLC patient-derived xenograft, Kaplan-Meier; type: in vivo, NSG mice; conditions: ABBV-399 every four days x6, ABT-700 every seven days x6, FIGS. 10A-10B
Description: Tumor fragments of 3 to 5 mm^3 at passage 3 (P3) were implanted subcutaneously in the right rear flank of NSG mice (The Jackson Laboratory) with a trochar. For all groups, tumor volumes were plotted only for the duration that allowed the full set of animal to remain on study. If animals had to be taken off study, the remaining animals were monitored for tumor growth until they reached defined end-points. Efficacy is depicted on a Kaplan-Meier plot for (A) LG0703 and (B) LG1049 models as fractions reaching the indicated tumors volumes following therapy.

[11] = tested on: metastatic solid tumors; assay: Phase 1 monotherapy, best response (RECIST 1.1); type: in vivo, human; conditions: all treated patients
Description: Three to 6 subjects will be enrolled in each cohort and dosed once every 21 (one dose per 21-day Cycle) or 14 (2 doses per 28-day Cycle) days until disease progression or unacceptable toxicity to determine the maximum tolerated dose (MTD) or maximally administered dose (MAD). Dose limiting toxicity (DLT) definitions will be used to make decisions regarding dose-escalation. […] On the dose-expansion, subjects with advanced solid tumors with cMet overexpression, MET exon 14 mutation or MET amplification will be enrolled.
Dosing began at 0.15 mg/kg and escalated to 0.3, 0.6, 1.2, 1.8, 2.4, 3.0 and 3.3 mg/kg in subsequent cohorts as tolerated. Alternative doses (intermediate or higher) or dosing schedules may be employed based on clinical safety and PK data. A dose of 2.7 mg/kg was also utilized based on the clinical safety and PK data. […] It is not administered as an intravenous push or bolus.
Baseline radiographic tumor assessments with CT (or MRI) of the head, chest, abdomen, and pelvis will be obtained no more than 28 days prior to Cycle 1 Day 1. CT scan (or MRI) will then be repeated approximately every 6 weeks after start of therapy to evaluate the extent of tumor burden. Radiographic tumor assessments will continue until disease progression documented by imaging, start of a new anti cancer therapy, death or withdrawal of consent. Response evaluation will be based on RECIST version 1.1. […]

[12] = tested on: cMet+ NSCLC; assay: Phase 1 monotherapy in cMet+ NSCLC, best response; type: in vivo, human
Description: A dose of 2.7 mg/kg was chosen for dose-expansion based primarily on safety and tolerability. For enrollment in this phase of the study, NSCLC subjects were screened for cMet overexpression using an IHC assay utilizing the CONFIRM anti-total cMet (SP44) Rabbit Monoclonal Primary Antibody kit purchased from Ventana (REF #790-4430). Tissue samples were scored by determining the percentages of target tissue cells staining at various intensity levels of low to high, i.e. IHC score of 0, 1+, 2+ or 3+ or an H-score of 0 to 149, 150-224, or 225-300. The scoring can be done either manually or via the aid of a computer. Details of the IHC assay and scoring are described in Example 17.

Substance: ABBV-399: ADC comprised of the cMet targeting antibody ABT-700 conjugated to MMAE through a valine citrulline (vc) linker
- Maximal Killing [1]: 22%
- Maximal Killing [2]: 96%
- Maximal Killing ([3]; Hs746T gastric cancer, relative to untreated control at ≤1 μg/mL in a six day proliferation): 87%
- inhibition of proliferation ([3]; MET-amplified Hs746T gastric cancer cells, FIG. 4): inhibited proliferation
- Maximal Killing [4]: 53%
- Maximal Killing ([5]; relative to untreated control at ≤1 μg/mL in a six day proliferation): 18%
- pIC50 ([5]; read-out: ABBV-399 IC50, cell proliferation assay, Table 7B): 7.74
- Maximal Killing [6]: 13%
- Maximal Killing [7]: 56%
- Maximal Killing [8]: 0%
- Maximal Killing [9]: 30%
- in vivo activity, comparison [10]: more active than ABT-700 alone
- best response: progressive disease ([11]; 17/40): 42.5%
- best response: stable disease ([11]; 20/40): 50%
- radiographic progressive disease ([12]; 2/16 treated patients): 12.5%
- partial responses ([12]; 3/16 treated patients): 19%
- stable disease ([12]; 6/16 treated patients): 37.5%
